Columns and labels:
[1] = test system: Radical scavenging activity; assay: Antioxidant activity assessed as DPPH free radical scavenging activity at 1 mM; assay type: functional
Colletotrichum coccodes = assay: Growth inhibition of Colletotrichum coccodes (Wallr.) S. Hughes at 100 uM after 6 days; assay type: functional, organism-based; conditions: 144 h

Row | Compound | Activity [1] [%] | also measured
1 | Nc1ccnc2c(C(=O)O)cc(O)cc12 | 12 | –
2 | O=C(O)c1cc(O)cc2cccnc12 | 15 | inhibition at 100 µM (Colletotrichum coccodes): 71%
3 | O=C(O)c1cc(O)cc2c(=O)[nH]ccc12 | 21 | –
4 | Oc1cccc2cccnc12 [QUINOSOL] | – | EC50 (Colletotrichum coccodes): 0.19 µM
5 | O=C1O[C@H]([C@@H](O)CO)C(O)=C1O [ASCORBIC ACID] | – | EC50 [1]: 45 µM

Reference: ChEMBL document CHEMBL1157385, “(Iso)-quinoline alkaloids from fungal fruiting bodies of Cortinarius subtortus” (J Nat Prod, 2008)
